pIC50: −log10 of the molar value. Read-outs that look alike come from different tables or passages of the source. Strand notation (5' to 3'): a small letter for the sugar, then the base; units joined by * are phosphorothioate-linked, units joined directly phosphodiester-linked; [ ] holds rarer units or linkages, { } end groups; capitals alone tell only the bases. [MMI] = methylene(methylimino) internucleoside backbone linkage; [PRP-N] = 2'-O-propyl ribonucleoside (N: the base); [PRP] = 2'-O-propyl ribonucleoside; e = 2'-O-(2-methoxyethyl) (MOE); [5mC] = 5-methylcytosine; d = 2'-deoxy (DNA); m = 2'-O-methyl; f = 2'-fluoro Where only a bound is given, the exact number is not on record here.

One series deals with VCAM-1 mRNA. Put plainly: ELISA of VCAM-1 expression in HUVECs. Format: cell-based, human. The settings on record: for pIC50: read-out: IC50 for inhibition of VCAM-1 expression.
Series [1] concerns ICAM-1 mRNA. Kind of series: Cell surface ICAM-1 expression in U937 cells after electroporation of MMI oligomers. Format: cell-based, human. The following applies: six concentrations 4 to 40 μM, N.A. = IC50 not obtained in the given dose range, read-out: Antisense activity (IC50) Electroporate. Here is the method: ISIS 14293-14296 are corresponding oligomers with alternating MMI/P═S backbones.
U937 cells were washed once in cold Opti-MEM (Gibco-BRL, Grand Island, N.Y.) and resuspended at 4×10^6 cells/ml. Oligomer was added to 0.1 ml of cells and incubated for 10 minutes on ice. Cells were transferred to a 1 mm gap electrode (BTX, San Diego, Calif.) and electroporated at 0.75 kV/cm. Cells were incubated at room temperature for 10 minutes and transferred to pre-warmed medium. Cells were allowed to rest for 1.5 hours before ICAM-1 expression was induced with 5 ng/ml TNF-αovernight. Cells were stained with an anti-ICAM-1-PE antibody (Pharmingen, San Diego CA) the next day.

A further series relates to E-selectin mRNA. Kind of series: ELISA of E-selectin expression in HUVECs. Format: cell-based, human. The following applies: for inhibition of E-selectin expression: oligomer concentration of 50 nM.
For series [2], the system named is ICAM-1 mRNA. Kind of series: ELISA of human ICAM-1 protein expression in HUVECs (mAb84H10). It is filed as cell-based. The following applies: FIG. 4 experiment. A general note: An ELISA detects its analyte on a solid surface through an enzyme-linked reagent.
The subject of series [3] is ICAM-1 mRNA. Kind of series: Reduction of ICAM-1 protein levels in HUVEC cells (LIPOFECTIN delivery, FACS). Format: cell-based, human.
Series [4] relates to ICAM-1 mRNA. Put plainly: ICAM-1 expression in U937 cells after electroporation of PNA oligomer (FACS). Format: cell-based, human. The settings on record: electroporated into U937 cells. From the text:
A PNA oligomer, ISIS 10535 (SEQ ID NO: 2), was synthesized, which is a shortened version of SEQ ID NO: 1 made as a PNA, with three arginines added at the 5′ end and one lysine added at the 3′ end. This oligomer was electroporated into U937 cells and a potent dose-response was obtained.
Cells were removed from plate surfaces by brief trypsinization with 0.25% trypsin in PBS. Trypsin activity was quenched with a solution of 2% bovine serum albumin and 0.2% sodium azide in PBS (+Mg/Ca). Cells were pelleted by centrifugation at 1000 rpm (Beckman GPR centrifuge), resuspended in PBS and stained with 3 μl/10^5 cells of ICAM-1 specific antibody, CD54-PE (Becton Dickinson, Mansfield Mass.) and 0.1 μg of control conjugated antibody, IgG2b-PE (Pharmingen, San Diego Calif.). Antibodies were incubated with the cells for 30 minutes at 4° C. in the dark, under gentle agitation. Cells were washed and then resuspended in 0.3 ml of FACSFLOW buffer (Becton Dickinson) with 0.5% formaldehyde. Expression of cell surface ICAM-1 was then determined by flow cytometry using a Becton Dickinson FACScan (San Jose, Calif.). ICAM-1 expression was calculated as a percentage of control expression.
Cells were washed in PBS and resuspended in PBS at 1×10^6 cells/ml. […] ICAM-1 expression was quantitated by FACS as in Example 4.

Setting [5] is: HUVECs, ELISA, FIG. 5 experiment, read-out: IC50 for reduction of E-selectin expression.
Setting [6] is: HUVECs, ELISA, equivalent (second) experiment, read-out: IC50 for reduction of E-selectin expression.
Setting [7] is: read-out: IC50 for inhibition of ICAM-1 protein expression.

On to “ISIS 13183: SEQ ID NO: 15, P═O all 2′-MOE, all C's are 5meC; VCAM-1 n.t. 1-20 (antisense e[5mC]eGeAeTeGe[5mC]eAeGeAeTeAe[5mC]e[5mC]eGe[5mC]eGeGeAeGdT)”, for which the pIC50 with VCAM-1 mRNA (FIG. 6 experiment) is above 8.00. As for “ISIS 14292: T*AG*CA*GA*GG*AG*CT*C (SEQ ID NO: 14), alternating P═O/MMI; ICAM-1 n.t. 1-14 (TAGCAGAGGAGCTC; linkages [MMI]o[MMI]o[MMI]o[MMI]o[MMI]o[MMI]o[MMI] (s phosphorothioate, o phosphodiester), sugars by position and methylation of C not given here; 3'-terminal nucleotide 2'-deoxy, non-terminal cytosines 5-methylated)”, in the series on ICAM-1 mRNA [1], the pIC50 is 4.82. Turning to “ISIS 9984: SEQ ID NO: 3 GAAGTCAGCCAAGAACAGCT, P═S all 2′ F except 3′ nt is deoxy; E-selectin 5′ cap (sugars from the 5' end f19 d1, all phosphorothioate, T or U not given here)”, the “IC50 for inhibition of E-selectin expression” value in the series with E-selectin mRNA (HUVECs, FIG. 3 experiment) is on record as “well below this”. Further, the “relative activity in inhibiting E-selectin protein expression” value with E-selectin mRNA (among over 30 2′-fluoro phosphorothioate sequences complementary to various regions of the E-selectin message) is “by far the most active”. As for “ISIS 11928: SEQ ID NO: 3, P═S all 2′-MOE except 3′ nt is deoxy, all C's 5meC; E-selectin 5′ cap (antisense eG*eA*eA*eG*eT*e[5mC]*eA*eG*e[5mC]*e[5mC]*eA*eA*eG*eA*eA*e[5mC]*eA*eG*e[5mC]*dT)”, the pIC50 in the series on E-selectin mRNA (setting [5]) and in the series with E-selectin mRNA (setting [6]) was above 8.52 throughout. For the same substance, the “inhibition of E-selectin expression” value with E-selectin mRNA (HUVECs) was around 100%. Take “ISIS 5884: CGATGCAGATACCGCGGAGT (SEQ ID NO: 15), P═S deoxy; VCAM-1 n.t. 1-20 (dC*dG*dA*dT*dG*dC*dA*dG*dA*dT*dA*dC*dC*dG*dC*dG*dG*dA*dG*dT)”: the pIC50 in the series with VCAM-1 mRNA (FIG. 6 experiment) was 7.92 to 8.00.

“ISIS 14040: SEQ ID NO: 15, P═S all 2′-O-propyl, all C's are 5meC; VCAM-1 n.t. 1-20 (antisense [PRP-5mC]*[PRP-G]*[PRP-A]*[PRP-T]*[PRP-G]*[PRP-5mC]*[PRP-A]*[PRP-G]*[PRP-A]*[PRP-T]*[PRP-A]*[PRP-5mC]*[PRP-5mC]*[PRP-G]*[PRP-5mC]*[PRP-G]*[PRP-G]*[PRP-A]*[PRP-G]*dT)”: the pIC50 in the series with VCAM-1 mRNA (subsequent experiment) is above 8.00.

On to “ISIS 13884: GGCTGAGGTTGCAACTCTGA (SEQ ID NO: 9), uniform P═O/2′MOE; ICAM-1 n.t. 16-35 (antisense eGeGe[5mC]eTeGeAeGeGeTeTeGe[5mC]eAeAe[5mC]eTe[5mC]eTeGdA)”, for which the pIC50 in the series with ICAM-1 mRNA [2] (setting [7]) was around 7.40. With “ISIS 14043: SEQ ID NO: 3, P═S all 2′-O-methyl except 3′ nt is deoxy, all C's 5meC; E-selectin 5′ cap (GAAGTCAGCCAAGAACAGCT; sugars from the 5' end m19 d1, all C 5-methyl, all phosphorothioate, T or U not given here)”, the pIC50 in the series on E-selectin mRNA (setting [6]) was 8.00.

With “ISIS 11158: SEQ ID NO: 1, 2′-methoxyethoxy, phosphodiester (P═O); targeted to ICAM-1 5′ cap (antisense TCTGAGTAGCAGAGGAGCTC; all 2'-MOE, all phosphodiester, methylation of C not given here)”, the pIC50 with ICAM-1 mRNA [1] is 6.00; with ICAM-1 mRNA [2] (setting [7]), around 8.30; with ICAM-1 mRNA [3] (read-out: IC50 (concentration required for 50% inhibition of ICAM-1 levels), HUVEC cells) it was around 8.05. Also, the “ICAM-1 protein expression at the oligonucleotide concentrations of the Northern experiment” value with ICAM-1 mRNA [3] (HUVECs) is recorded as “completely inhibited”.

“ISIS 13182: SEQ ID NO: 15, P═S all 2′-MOE, all C's are 5meC; VCAM-1 n.t. 1-20 (antisense e[5mC]*eG*eA*eT*eG*e[5mC]*eA*eG*eA*eT*eA*e[5mC]*e[5mC]*eG*e[5mC]*eG*eG*eA*eG*dT)”: the pIC50 in the series with VCAM-1 mRNA (FIG. 6 experiment) is above 8.00. Turning to “ISIS 14290: T*GA*GT*AG*CA*GA*GG*AG*CT*C (SEQ ID NO: 12), alternating P═O/MMI; ICAM-1 n.t. 1-18 (TGAGTAGCAGAGGAGCTC; linkages [MMI]o[MMI]o[MMI]o[MMI]o[MMI]o[MMI]o[MMI]o[MMI]o[MMI] (s phosphorothioate, o phosphodiester), sugars by position and methylation of C not given here; 3'-terminal nucleotide 2'-deoxy, non-terminal cytosines 5-methylated)”, the pIC50 in the series on ICAM-1 mRNA [1] is 5.15. For “ISIS 13181: SEQ ID NO: 15 sequence, P═S all 2′ F; VCAM-1 n.t. 1-20 (antisense CGATGCAGATACCGCGGAGT; sugars from the 5' end f19 d1, all phosphorothioate, T or U not given here)”, in the series with VCAM-1 mRNA (FIG. 6 experiment), the pIC50 was above 8.00. Moreover, the “inhibition of VCAM-1 expression” value in the series on VCAM-1 mRNA (highest dose tested, 100 nM) is 100%. As for “ISIS 10535: PNA oligomer (SEQ ID NO: 2), shortened SEQ ID NO: 1, three arginines at the 5′ end and one lysine at the 3′ end (antisense TCTGAGTAGCAGAGGAGC; all peptide nucleic acid (PNA); three arginines at 5' end, one lysine at 3' end)”, the “ICAM-1 level at higher doses” value in the series with ICAM-1 mRNA [4] was “below baseline levels”. In the series on ICAM-1 mRNA [4] (read-out: IC50 for ICAM-1 reduction), the pIC50 is above 5.30.

In the case of “ISIS 4764: SEQ ID NO: 3, P═S deoxy; E-selectin 5′ cap (dG*dA*dA*dG*dT*dC*dA*dG*dC*dC*dA*dA*dG*dA*dA*dC*dA*dG*dC*dT)”, the pIC50 was around 8.00 in the series with E-selectin mRNA (setting [5]); 8.00 with E-selectin mRNA (setting [6]); above 8.00 in the series on E-selectin mRNA (HUVECs, FIG. 3 experiment, read-out: IC50 for inhibition of E-selectin expression).

Take “ISIS 13886: GCAACTCTGAGTAGCAGAGG (SEQ ID NO: 10), uniform P═O/2′MOE; ICAM-1 n.t. 6-25 (antisense eGe[5mC]eAeAe[5mC]eTe[5mC]eTeGeAeGeTeAeGe[5mC]eAeGeAeGdG)”: the pIC50 in the series with ICAM-1 mRNA [2] (setting [7]) was below 7.30; in the series on ICAM-1 mRNA [2] (tested only up to 50 nM, read-out: estimated IC50 by extrapolation of the dose-response curve), around 7.22. As for “ISIS 14295: A*GT*AG*CA*GA*GG*AG*CT*C (SEQ ID NO: 13), alternating P═S/MMI; ICAM-1 n.t. 1-16 (AGTAGCAGAGGAGCTC; chemistry not fully specified)”, in the series on ICAM-1 mRNA [1], the pIC50 is 4.46.

As to “ISIS 11205: SEQ ID NO: 3, P═S all 2′ F except 3′ nt is deoxy, all C's 5meC; E-selectin 5′ cap (antisense GAAGTCAGCCAAGAACAGCT; sugars from the 5' end f19 d1, all C 5-methyl, all phosphorothioate, T or U not given here)”, the pIC50 in the series on E-selectin mRNA (setting [5]) and with E-selectin mRNA (setting [6]) was above 8.52 each time. Further, in the series with E-selectin mRNA (HUVECs), the “inhibition of E-selectin expression” value is around 100%. For “ISIS 9218: SEQ ID NO: 3, P═S all 2′-O-propyl except 3′ nt is deoxy; E-selectin 5′ cap (GAAGTCAGCCAAGAACAGCT; sugars from the 5' end [PRP]19 d1, all phosphorothioate, methylation of C not given here)”, the pIC50 in the series on E-selectin mRNA (setting [6]) is 7.60. Turning to “ISIS 14041: SEQ ID NO: 15, P═S all 2′-O-methyl, all C's are 5meC; VCAM-1 n.t. 1-20 (CGATGCAGATACCGCGGAGT; sugars from the 5' end m19 d1, all C 5-methyl, all phosphorothioate, T or U not given here)”, in the series with VCAM-1 mRNA (subsequent experiment), the pIC50 was above 8.00.

(Values after patent US20020052331A1, “Compositions and methods for antisense inhibition of protein translation” (priority 1990, published 2002).)
